Assay results reported in patent publication US20240018153A1, “BENZENESULFONAMIDE DERIVATIVES AND USES THEREOF” (2692372 ONTARIO, INC., priority 2020, published 2024).

Key:
Format in all cases: biochemical
BTK = BTK (Homo sapiens (Human), UniProt Q06187); experiment: HTRF KinEASE-TK kinase assay, BTK; conditions: 3 h preincubation; for remaining activity at 1 µM: 1 μM compound, read-out: % BTK Remaining activity vs DMSO (1 μM, 3 h); for remaining activity at 10 µM: 10 μM compound, read-out: % BTK Remaining activity vs DMSO (10 μM, 3 h)
Chain of BTK (Q06187 whole entry): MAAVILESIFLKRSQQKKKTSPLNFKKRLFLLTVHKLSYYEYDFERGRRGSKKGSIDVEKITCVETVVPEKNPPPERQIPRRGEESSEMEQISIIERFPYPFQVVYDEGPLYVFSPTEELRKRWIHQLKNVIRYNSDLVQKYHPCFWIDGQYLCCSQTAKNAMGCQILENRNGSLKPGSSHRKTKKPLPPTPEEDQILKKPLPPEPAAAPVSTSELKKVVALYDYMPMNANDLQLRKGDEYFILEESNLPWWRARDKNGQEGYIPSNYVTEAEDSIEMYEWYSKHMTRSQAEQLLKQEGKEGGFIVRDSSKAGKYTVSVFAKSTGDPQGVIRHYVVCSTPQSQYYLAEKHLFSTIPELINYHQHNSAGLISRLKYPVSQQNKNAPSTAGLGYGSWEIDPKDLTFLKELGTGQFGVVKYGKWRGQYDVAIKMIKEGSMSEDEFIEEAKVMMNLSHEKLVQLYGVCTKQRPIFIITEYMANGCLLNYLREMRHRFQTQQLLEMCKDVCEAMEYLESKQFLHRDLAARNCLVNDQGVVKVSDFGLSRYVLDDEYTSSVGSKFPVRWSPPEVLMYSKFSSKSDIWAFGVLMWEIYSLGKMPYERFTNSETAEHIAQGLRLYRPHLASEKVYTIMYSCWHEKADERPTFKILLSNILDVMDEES
Method: Kinase activity was monitored using a HTRF® KinEASE-TK kit from Cisbio (62TK0PEC). For BTK, the 1× kinase buffer was supplemented with 10 mM MnCl2, 5 mM MgCl2, 1 uM ATPγS, 1 mM TCEP and 100 fold diluted Supplementary Enzyme Buffer. BTK was purchased from Promega. […] Reaction with substrate was then initiated by adding biotinylated substrate and ATP and the reaction was allowed to proceed for 45 min. […] After 60 min of incubation, the fluorescence emission was measured at 620 nm and 665 nm. The ratio of Em 665 nm to Em 620 nm was proportional to the amount of substrate phosphorylated by the kinase.

FGFR4 = FGFR4 (Homo sapiens (Human), UniProt P22455); experiment: HTRF KinEASE-TK kinase assay, FGFR4; conditions: for IC50: dose response; for remaining activity at 1 µM: read-out: % FGFR4 Remaining activity vs DMSO (1 μM, 3 h); for remaining activity at 10 µM: read-out: % FGFR4 Remaining activity vs DMSO (10 μM, 3 h)
Chain of FGFR4 (P22455 22-802): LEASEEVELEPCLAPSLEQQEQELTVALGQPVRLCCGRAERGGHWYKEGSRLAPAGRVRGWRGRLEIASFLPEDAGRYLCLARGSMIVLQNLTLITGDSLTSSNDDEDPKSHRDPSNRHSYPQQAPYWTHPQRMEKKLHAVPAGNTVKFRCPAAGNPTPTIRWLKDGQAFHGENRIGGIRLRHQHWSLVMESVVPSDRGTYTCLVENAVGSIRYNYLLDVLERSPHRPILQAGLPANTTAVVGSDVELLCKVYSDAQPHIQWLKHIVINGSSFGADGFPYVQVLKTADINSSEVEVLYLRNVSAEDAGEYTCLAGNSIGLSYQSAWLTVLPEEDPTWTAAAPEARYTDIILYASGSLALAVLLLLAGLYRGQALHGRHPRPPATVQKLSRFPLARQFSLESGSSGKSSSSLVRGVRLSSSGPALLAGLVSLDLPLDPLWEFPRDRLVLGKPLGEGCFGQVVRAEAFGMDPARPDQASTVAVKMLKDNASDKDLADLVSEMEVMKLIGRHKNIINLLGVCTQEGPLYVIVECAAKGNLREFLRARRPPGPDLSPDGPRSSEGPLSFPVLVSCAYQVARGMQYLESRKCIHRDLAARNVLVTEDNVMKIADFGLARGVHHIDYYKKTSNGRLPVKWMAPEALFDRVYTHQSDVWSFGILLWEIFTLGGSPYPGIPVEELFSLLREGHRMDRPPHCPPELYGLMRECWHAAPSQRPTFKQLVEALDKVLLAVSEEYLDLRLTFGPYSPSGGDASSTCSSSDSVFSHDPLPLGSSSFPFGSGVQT
Method: (§1) Kinase activity was monitored using a HTRF® KinEASE-TK kit from Cisbio (62TK0PEC). […] FGFR-4 was purchased from Promega. 0.333 ng/ul FGFR4 (5.12 nM) was preincubated in the absence or presence of inhibitor at room temperature for 3 hours. Reaction with substrate was then initiated by adding biotinylated substrate and ATP. […] The reaction was terminated by adding 31.25 nM SA-XL665 and 100 fold diluted europium labelled antibody (Eu-Ab), diluted in 1× detection buffer that contained EDTA. After 60 min of incubation, the fluorescence emission was measured at 620 nm and 665 nm. The ratio of Em 665 nm to Em 620 nm was proportional to the amount of substrate phosphorylated by the kinase.

EGFR = EGFR (Homo sapiens (Human), UniProt P00533); experiment: HTRF KinEASE-TK kinase assay, EGFR; conditions: 3 h preincubation; for remaining activity at 1 µM: 1 μM compound, read-out: % EGFR Remaining activity vs DMSO (1 μM, 3 h); for remaining activity at 10 µM: 10 μM compound, read-out: % EGFR Remaining activity vs DMSO (10 μM, 3 h)
Chain of EGFR (P00533 25-1210): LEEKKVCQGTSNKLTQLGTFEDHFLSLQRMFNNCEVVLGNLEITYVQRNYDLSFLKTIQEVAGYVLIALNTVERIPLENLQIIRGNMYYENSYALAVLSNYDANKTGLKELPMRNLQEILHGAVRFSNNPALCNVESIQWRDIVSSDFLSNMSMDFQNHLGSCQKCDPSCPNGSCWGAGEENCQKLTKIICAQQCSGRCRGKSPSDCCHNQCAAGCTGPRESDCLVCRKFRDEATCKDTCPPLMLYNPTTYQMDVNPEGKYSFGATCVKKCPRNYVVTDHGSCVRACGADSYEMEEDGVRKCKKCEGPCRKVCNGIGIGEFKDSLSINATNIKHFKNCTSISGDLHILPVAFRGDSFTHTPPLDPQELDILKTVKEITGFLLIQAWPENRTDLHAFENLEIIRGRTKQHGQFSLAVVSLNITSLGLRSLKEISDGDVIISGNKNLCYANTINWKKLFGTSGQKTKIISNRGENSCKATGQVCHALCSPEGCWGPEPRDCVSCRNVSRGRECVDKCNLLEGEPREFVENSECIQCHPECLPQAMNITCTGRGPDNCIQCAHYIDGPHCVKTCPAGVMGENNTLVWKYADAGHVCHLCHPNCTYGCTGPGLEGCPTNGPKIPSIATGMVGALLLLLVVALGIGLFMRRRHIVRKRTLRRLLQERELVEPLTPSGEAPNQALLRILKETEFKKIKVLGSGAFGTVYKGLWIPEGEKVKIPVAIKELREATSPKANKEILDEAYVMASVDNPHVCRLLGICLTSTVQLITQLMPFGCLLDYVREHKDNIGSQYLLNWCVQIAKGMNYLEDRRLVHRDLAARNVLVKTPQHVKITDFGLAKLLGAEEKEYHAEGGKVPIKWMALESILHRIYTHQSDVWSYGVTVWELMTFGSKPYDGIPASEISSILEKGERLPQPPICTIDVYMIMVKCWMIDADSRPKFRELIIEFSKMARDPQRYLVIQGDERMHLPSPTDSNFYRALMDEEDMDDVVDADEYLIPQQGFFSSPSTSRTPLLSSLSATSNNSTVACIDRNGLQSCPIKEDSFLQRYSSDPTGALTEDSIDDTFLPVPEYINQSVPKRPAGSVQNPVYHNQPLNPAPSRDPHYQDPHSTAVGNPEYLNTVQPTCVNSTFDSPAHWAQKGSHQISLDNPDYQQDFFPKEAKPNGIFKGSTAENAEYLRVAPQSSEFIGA
Method: Kinase activity was monitored using a HTRF® KinEASE-TK kit from Cisbio (62TK0PEC). The buffer used was 1× kinase buffer supplemented with 2 mM MnCl2, 5 mM MgCl2, 1 mM TCEP and 100× diluted Supplementary Enzyme Buffer. EGFR was purchased from Promega. […] Reaction with substrate was then initiated by adding biotinylated substrate and ATP. […] After 60 min of incubation, the fluorescence emission was measured at 620 nm and 665 nm. The ratio of Em 665 nm to Em 620 nm was proportional to the amount of substrate phosphorylated by the kinase.
For initial screening, enzymes were pre incubated with compounds at 2 different concentrations (1 and 10 uM final) and 0.5% DMSO.

BMX = BMX (Homo sapiens (Human), UniProt P51813); experiment: HTRF KinEASE-TK kinase assay, BMX; conditions: 3 h preincubation; for remaining activity at 1 µM: 1 uM compound; for remaining activity at 10 µM: 10 uM compound
Chain of BMX (P51813 whole entry): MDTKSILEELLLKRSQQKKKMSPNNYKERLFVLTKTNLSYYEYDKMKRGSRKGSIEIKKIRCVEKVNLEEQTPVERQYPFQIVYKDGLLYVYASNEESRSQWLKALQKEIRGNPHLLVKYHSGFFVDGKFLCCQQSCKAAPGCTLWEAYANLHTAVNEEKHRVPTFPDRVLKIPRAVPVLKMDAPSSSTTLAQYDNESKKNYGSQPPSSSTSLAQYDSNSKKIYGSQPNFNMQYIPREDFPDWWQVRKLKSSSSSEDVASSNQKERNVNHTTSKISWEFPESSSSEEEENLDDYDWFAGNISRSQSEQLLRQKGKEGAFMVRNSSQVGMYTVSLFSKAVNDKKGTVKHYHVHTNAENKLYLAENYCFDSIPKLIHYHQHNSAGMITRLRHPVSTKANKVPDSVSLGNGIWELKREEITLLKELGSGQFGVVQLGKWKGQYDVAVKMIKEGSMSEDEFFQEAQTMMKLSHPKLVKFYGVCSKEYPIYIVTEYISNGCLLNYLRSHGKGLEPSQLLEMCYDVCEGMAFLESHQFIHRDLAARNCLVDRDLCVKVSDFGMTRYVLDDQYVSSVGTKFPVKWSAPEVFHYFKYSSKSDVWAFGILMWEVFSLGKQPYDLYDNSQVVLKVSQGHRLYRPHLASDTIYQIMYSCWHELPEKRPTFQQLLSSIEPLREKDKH
Method: as §1, with “BMX” for “FGFR-4”, “BMX (3.03” for “FGFR4 (5.12”, “The reaction” for “Reaction”, “Reaction” for “The reaction”

JAK3 = JAK3 (Homo sapiens (Human), UniProt P52333); experiment: HTRF KinEASE-TK kinase assay, JAK3; conditions: for remaining activity at 1 µM: read-out: % JAK3 Remaining activity vs DMSO (1 μM, 3 h); for remaining activity at 10 µM: read-out: % JAK3 Remaining activity vs DMSO (10 μM, 3 h)
Chain of JAK3 (P52333 781-1124): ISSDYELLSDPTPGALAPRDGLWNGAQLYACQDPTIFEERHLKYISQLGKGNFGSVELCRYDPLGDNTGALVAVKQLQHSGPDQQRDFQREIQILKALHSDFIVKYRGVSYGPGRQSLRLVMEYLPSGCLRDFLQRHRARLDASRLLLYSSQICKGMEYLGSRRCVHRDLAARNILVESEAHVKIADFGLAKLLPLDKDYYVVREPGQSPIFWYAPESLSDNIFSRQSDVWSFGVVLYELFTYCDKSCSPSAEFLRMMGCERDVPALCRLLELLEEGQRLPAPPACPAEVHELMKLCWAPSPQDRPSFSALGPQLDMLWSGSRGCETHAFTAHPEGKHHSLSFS
Method: as §1, with “JAK-3” for “FGFR-4”, “0.0133” for “0.333”, “JAK3 (0.21” for “FGFR4 (5.12”

RIPK2 = RIPK2 (Homo sapiens (Human), UniProt O43353); experiment: In vitro RIPK2 inhibition
Chain of RIPK2 (O43353 whole entry, species assumed): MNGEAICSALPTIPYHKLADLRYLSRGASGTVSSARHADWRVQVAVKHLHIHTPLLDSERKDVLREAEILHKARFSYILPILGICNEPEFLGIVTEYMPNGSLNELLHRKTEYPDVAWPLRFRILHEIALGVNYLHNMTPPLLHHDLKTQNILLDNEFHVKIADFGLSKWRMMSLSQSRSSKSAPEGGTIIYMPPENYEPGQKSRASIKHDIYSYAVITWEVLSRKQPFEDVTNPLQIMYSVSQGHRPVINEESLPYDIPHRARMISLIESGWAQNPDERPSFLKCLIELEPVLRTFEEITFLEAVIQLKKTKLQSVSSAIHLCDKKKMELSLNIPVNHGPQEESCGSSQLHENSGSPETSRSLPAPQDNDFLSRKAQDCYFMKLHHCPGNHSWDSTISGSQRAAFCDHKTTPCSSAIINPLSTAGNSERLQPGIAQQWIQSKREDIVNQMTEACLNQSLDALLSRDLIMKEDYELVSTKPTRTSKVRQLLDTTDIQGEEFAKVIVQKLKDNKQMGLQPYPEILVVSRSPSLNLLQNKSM

| IC50 (BTK; dose response, read-out: BTK Inhibition IC50) [nM] | IC50 (FGFR4) [nM] | remaining activity at 1 µM (EGFR) [%] | remaining activity at 10 µM (EGFR) [%] | remaining activity at 1 µM (BTK) [%] | remaining activity at 10 µM (BTK) [%] | remaining activity at 1 µM (BMX) [%] | remaining activity at 10 µM (BMX) [%] | remaining activity at 1 µM (FGFR4) [%] | remaining activity at 10 µM (FGFR4) [%] | remaining activity at 1 µM (JAK3) [%] | remaining activity at 10 µM (JAK3) [%] | remaining activity at 1 µM (RIPK2; read-out: % RIPK2 Remaining activity vs DMSO (1 μM, 3 h)) [%] | remaining activity at 10 µM (RIPK2; read-out: % RIPK2 Remaining activity vs DMSO (10 μM, 3 h)) [%] | IC50 (EGFR; dose response, read-out: EGFR Inhibition IC50) [nM] | SMILES |
| --- | --- | --- | --- | --- | --- | --- | --- | --- | --- | --- | --- | --- | --- | --- | --- |
| < 1000 | < 1000 | – | – | – | – | – | – | – | – | – | – | – | – | – | COCCOc1ccc(Nc2ncc(F)c(Nc3cccc(NC(=O)c4c(F)c(F)c(F)c(F)c4[S@+](C)[O-])c3)n2)cc1 (racemic) [Compound I-62, 2,3,4,5-tetrafluoro-N-(3-((5-fluoro-2-((4-(2-methoxyethoxy)phenyl)amino)pyrimidin-4-yl)amino)phenyl)-6-(methylsulfinyl)benzamide] |
| – | – | > 90 | 50 to 90 | > 90 | > 90 | 50 to 90 | > 90 | > 90 | > 90 | > 90 | > 90 | – | – | – | CN(CCn1nc(-c2ccc(Oc3ccccc3)cc2)c2c(N)ncnc21)c1c(F)c(F)c(F)c(F)c1S(C)(=O)=O [Compound I-43, 1-(2-(methyl(2,3,4,5-tetrafluoro-6-(methylsulfonyl)phenyl)amino)ethyl)-3-(4-phenoxyphenyl)-1H-pyrazolo[3,4-d]pyrimidin-4-amine] |
| – | – | > 90 | < 50 | < 50 | < 50 | < 50 | < 50 | > 90 | < 50 | > 90 | < 50 | – | – | – | CS(=O)(=O)c1c(F)c(F)c(F)c(F)c1CNCCn1nc(-c2ccc(Oc3ccccc3)cc2)c2c(N)ncnc21 [Compound I-44, 3-(4-phenoxyphenyl)-1-(2-((2,3,4,5-tetrafluoro-6-(methylsulfonyl)benzyl)amino)ethyl)-1H-pyrazolo[3,4-d]pyrimidin-4-amine] |
| – | < 1000 | > 90 | > 90 | < 50 | < 50 | < 50 | < 50 | < 50 | < 50 | > 90 | < 50 | – | – | – | COCCOc1ccc(Nc2ncc(F)c(Nc3cccc(NS(=O)(=O)c4c(F)c(F)c(F)c(F)c4CF)c3)n2)cc1 [Compound I-58, 2,3,4,5-tetrafluoro-N-(3-((5-fluoro-2-((4-(2-methoxyethoxy)phenyl)amino)pyrimidin-4-yl)amino)phenyl)-6-(fluoromethyl)benzenesulfonamide] |
| – | – | > 90 | > 90 | – | – | < 50 | < 50 | 50 to 90 | > 90 | > 90 | > 90 | 50 to 90 | > 90 | – | CN(C)S(=O)(=O)c1c(F)c(F)c(F)c(F)c1C(=O)N1CCC[C@@H](n2nc(-c3ccc(Oc4ccccc4)cc3)c3c(N)ncnc32)C1 [Compound I-31, (R)-2-(3-(4-amino-3-(4-phenoxyphenyl)-1H-pyrazolo[3,4-d]pyrimidin-1-yl)piperidine-1-carbonyl)-3,4,5,6-tetrafluoro-N,N-dimethylbenzenesulfonamide] |
| – | – | < 50 | < 50 | 50 to 90 | < 50 | 50 to 90 | 50 to 90 | > 90 | > 90 | 50 to 90 | < 50 | – | – | < 1000 | O=S(=O)(Nc1cc2c(Nc3ccc(F)c(Cl)c3)ncnc2cc1O[C@H]1CCOC1)c1c(F)c(F)c(F)c(F)c1C(F)(F)F [Compound I-1, (S)—N-(4-((3-chloro-4-fluorophenyl)amino)-7-((tetrahydrofuran-3-yl)oxy)quinazolin-6-yl)-2,3,4,5-tetrafluoro-6-(trifluoromethyl)benzenesulfonamide] |
